Measurements from article PMC11822212, “High-throughput screening identifies Aurora kinase B as a critical therapeutic target for Merkel cell carcinoma” (Nature Communications, 2025).
Like-named read-outs stand apart in the source and are kept apart here.

Legend:
Assay in all cases: qHTS cell viability (CellTiter-Glo, 72 h; primary and follow-up small molecule screen)
Format in all cases: cell-based, human
[1] = test system: MCC13 cells (VN-MCC)
[2] = test system: MCC26 cells (VN-MCC)
[3] = test system: UISO cells (VN-MCC)
[4] = test system: WAGA cells (VP-MCC)
[5] = test system: MKL-1 cells (VP-MCC)
[6] = test system: MKL-2 cells (VP-MCC)
[7] = follow-up screen, MCC13, replicate 1
[8] = follow-up screen, MCC13, replicate 2
[9] = follow-up screen, MCC13, replicate 3
[10] = follow-up screen, MCC26, replicate 1
[11] = follow-up screen, MCC26, replicate 2
[12] = follow-up screen, MCC26, replicate 3
[13] = follow-up screen, UISO, replicate 1
[14] = follow-up screen, UISO, replicate 2
[15] = follow-up screen, UISO, replicate 3
[16] = follow-up screen, WAGA, replicate 1
[17] = follow-up screen, WAGA, replicate 2
[18] = follow-up screen, WAGA, replicate 3
[19] = follow-up screen, MKL-1, replicate 1
[20] = follow-up screen, MKL-1, replicate 2
[21] = follow-up screen, MKL-1, replicate 3
[22] = follow-up screen, MKL-2, replicate 1
[23] = follow-up screen, MKL-2, replicate 2
[24] = follow-up screen, MKL-2, replicate 3

Row | SMILES | Area under the dose-response curve (AUC) MCC13 Replicate 1 [1, 7] | Area under the dose-response curve (AUC) MCC13 Replicate 2 [1, 8] | Area under the dose-response curve (AUC) MCC13 Replicate 3 [1, 9] | Area under the dose-response curve (AUC) MCC26 Replicate 1 [2, 10] | Area under the dose-response curve (AUC) MCC26 Replicate 2 [2, 11] | Area under the dose-response curve (AUC) MCC26 Replicate 3 [2, 12] | Area under the dose-response curve (AUC) UISO Replicate 1 [3, 13] | Area under the dose-response curve (AUC) UISO Replicate 2 [3, 14] | Area under the dose-response curve (AUC) UISO Replicate 3 [3, 15] | Area under the dose-response curve (AUC) WAGA Replicate 1 [4, 16] | Area under the dose-response curve (AUC) WAGA Replicate 2 [4, 17] | Area under the dose-response curve (AUC) WAGA Replicate 3 [4, 18] | Area under the dose-response curve (AUC) MKL-1 Replicate 1 [5, 19] | Area under the dose-response curve (AUC) MKL-1 Replicate 2 [5, 20] | Area under the dose-response curve (AUC) MKL-1 Replicate 3 [5, 21] | Area under the dose-response curve (AUC) MKL-2 Replicate 1 [6, 22] | Area under the dose-response curve (AUC) MKL-2 Replicate 2 [6, 23] | Area under the dose-response curve (AUC) MKL-2 Replicate 3 [6, 24] | further results
1 | CN(C)C(=S)SSC(=S)N(C)C [Thiram] | 426.5 | 421.8 | 374.2 | 337.3 | 393.8 | 315.2 | 236.0 | 292.8 | 254.7 | 336.4 | 438.2 | 469.3 | 288.7 | 292.8 | 242.1 | 303.0 | 281.4 | 269.4 | –
2 | N#CC(=C(/N)Sc1ccccc1N)/C(C#N)=C(\N)Sc1ccccc1N [U-0126] | 475.9 | 463.7 | 403.4 | 467.3 | 454.7 | 472.7 | 414.2 | 403.9 | 361.8 | 550.5 | 484.0 | 458.9 | 488.8 | 473.7 | 468.2 | 434.1 | 447.4 | 479.4 | –
3 | COc1cc(O)c2c(c1)oc(=O)c1c3cc(O)c(O)cc3oc21 [WEDELOLACTONE] | – | – | – | – | – | – | – | – | – | – | – | – | – | – | – | – | – | – | Area under the dose-response curve (AUC) MCC13 Replicate 1 [1]: 452.7; Area under the dose-response curve (AUC) MCC13 Replicate 2 [1]: 445.8; Area under the dose-response curve (AUC) MCC13 Replicate 3 [1]: 440.3; Area under the dose-response curve (AUC) MCC26 Replicate 1 [2]: 436.4; Area under the dose-response curve (AUC) MCC26 Replicate 2 [2]: 432.2; Area under the dose-response curve (AUC) MCC26 Replicate 3 [2]: 441.9; Area under the dose-response curve (AUC) UISO Replicate 1 [3]: 275.6; Area under the dose-response curve (AUC) UISO Replicate 2 [3]: 271.0; Area under the dose-response curve (AUC) UISO Replicate 3 [3]: 228.5; Area under the dose-response curve (AUC) WAGA Replicate 1 [4]: 442.4; Area under the dose-response curve (AUC) WAGA Replicate 2 [4]: 419.0; Area under the dose-response curve (AUC) WAGA Replicate 3 [4]: 421.6; Area under the dose-response curve (AUC) MKL-1 Replicate 1 [5]: 490.5; Area under the dose-response curve (AUC) MKL-1 Replicate 2 [5]: 454.4; Area under the dose-response curve (AUC) MKL-1 Replicate 3 [5]: 448.6; Area under the dose-response curve (AUC) MKL-2 Replicate 1 [6]: 426.5; Area under the dose-response curve (AUC) MKL-2 Replicate 2 [6]: 409.5; Area under the dose-response curve (AUC) MKL-2 Replicate 3 [6]: 433.4
4 | Cc1ccc(NC(=O)c2cccc(N(C)C)c2)cc1NC(=O)c1ccc(O)cc1 [ZM-336372] | 498.2 | 493.5 | 506.1 | 438.1 | 425.8 | 478.4 | 448.6 | 464.6 | 456.5 | 500.4 | 604.1 | 537.5 | 480.0 | 490.6 | 522.7 | 501.8 | 535.1 | 493.2 | –
